Values of other authors, collected in patent publication US6627153B1, “Integrated assay for organ function, drugs and/or one or more metabolites” (priority 1999, dated 2003).

Conditions: following oral administration; within the first 24 hours

absorbed drug eliminated via the renal route: 90%
Compound: CN(C)C(=N)N=C(N)N [Metformin]
